Reference: patent US20140348819A1, “Methods of Treating Cancer” (Dana-Farber Cancer Institute, Inc., priority 2011, published 2014)

Test system: six V600E BRAF melanoma cell lines
Experiment: Screening of recombinant RTK ligands for ability to confer resistance to BRAFi (PLX4720) or MEKi (PD184352) (Table 4)
Type: cell-based, human
Parameters: ability of recombinant RTK ligand to confer resistance / ability of recombinant RTK ligand to confer resistance (screening value): scale not given here
Procedure, shortened: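 Six V600E BRAF melanoma lines treated with PLX4720 or PD184352 after addition of 22 recombinant RTK ligands, scored for drug resistance. Activation of selected RTKs confirmed by western blotting and high-throughput tyrosine kinase phosphorylation profiling.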

Substance: NT3
- ability of recombinant RTK ligand to confer resistance (A2058, PD184352 - 1 uM, ligand 0.4 ng/ml): 1.04
- ability of recombinant RTK ligand to confer resistance (A2058, PD184352 - 1 uM, ligand 1.6 ng/ml): 1.13
- ability of recombinant RTK ligand to confer resistance (A2058, PD184352 - 1 uM, ligand 6.25 ng/ml): 1.08
- ability of recombinant RTK ligand to confer resistance (A2058, PD184352 - 1 uM, ligand 25 ng/ml): 1.01
- ability of recombinant RTK ligand to confer resistance (A2058, PD184352 - 1 uM, ligand 100 ng/ml): 0.90
- ability of recombinant RTK ligand to confer resistance (A2058, PLX4720 - 2 uM, ligand 0.4 ng/ml): 1.02
- ability of recombinant RTK ligand to confer resistance (A2058, PLX4720 - 2 uM, ligand 1.6 ng/ml): 1.16
- ability of recombinant RTK ligand to confer resistance (A2058, PLX4720 - 2 uM, ligand 6.25 ng/ml): 1.09
- ability of recombinant RTK ligand to confer resistance (A2058, PLX4720 - 2 uM, ligand 25 ng/ml): 1.02
- ability of recombinant RTK ligand to confer resistance (A2058, PLX4720 - 2 uM, ligand 100 ng/ml): 0.93
- ability of recombinant RTK ligand to confer resistance (C32, PD184352 - 1 uM, ligand 0.4 ng/ml): 0.98
- ability of recombinant RTK ligand to confer resistance (C32, PD184352 - 1 uM, ligand 1.6 ng/ml): 1.02
- ability of recombinant RTK ligand to confer resistance (C32, PD184352 - 1 uM, ligand 6.25 ng/ml): 0.93
- ability of recombinant RTK ligand to confer resistance (C32, PD184352 - 1 uM, ligand 25 ng/ml): 0.95
- ability of recombinant RTK ligand to confer resistance (C32, PD184352 - 1 uM, ligand 100 ng/ml): 0.88
- ability of recombinant RTK ligand to confer resistance (C32, PLX4720 - 2 uM, ligand 0.4 ng/ml): 1.00
- ability of recombinant RTK ligand to confer resistance (C32, PLX4720 - 2 uM, ligand 1.6 ng/ml): 1.03
- ability of recombinant RTK ligand to confer resistance (C32, PLX4720 - 2 uM, ligand 6.25 ng/ml): 0.91
- ability of recombinant RTK ligand to confer resistance (C32, PLX4720 - 2 uM, ligand 25 ng/ml): 1.00
- ability of recombinant RTK ligand to confer resistance (C32, PLX4720 - 2 uM, ligand 100 ng/ml): 0.95
- ability of recombinant RTK ligand to confer resistance (Colo 829, PD184352 - 1 uM, ligand 0.4 ng/ml): 1.07
- ability of recombinant RTK ligand to confer resistance (Colo 829, PD184352 - 1 uM, ligand 1.6 ng/ml): 1.16
- ability of recombinant RTK ligand to confer resistance (Colo 829, PD184352 - 1 uM, ligand 6.25 ng/ml): 1.02
- ability of recombinant RTK ligand to confer resistance (Colo 829, PD184352 - 1 uM, ligand 25 ng/ml): 1.07
- ability of recombinant RTK ligand to confer resistance (Colo 829, PD184352 - 1 uM, ligand 100 ng/ml): 1.03
- ability of recombinant RTK ligand to confer resistance (Colo 829, PLX4720 - 2 uM, ligand 0.4 ng/ml): 1.03
- ability of recombinant RTK ligand to confer resistance (Colo 829, PLX4720 - 2 uM, ligand 1.6 ng/ml): 1.15
- ability of recombinant RTK ligand to confer resistance (Colo 829, PLX4720 - 2 uM, ligand 6.25 ng/ml): 1.00
- ability of recombinant RTK ligand to confer resistance (Colo 829, PLX4720 - 2 uM, ligand 25 ng/ml): 1.09
- ability of recombinant RTK ligand to confer resistance (Colo 829, PLX4720 - 2 uM, ligand 100 ng/ml): 1.04
- ability of recombinant RTK ligand to confer resistance (G-361, PD184352 - 1 uM, ligand 0.4 ng/ml): 0.98
- ability of recombinant RTK ligand to confer resistance (G-361, PD184352 - 1 uM, ligand 1.6 ng/ml): 0.98
- ability of recombinant RTK ligand to confer resistance (G-361, PD184352 - 1 uM, ligand 6.25 ng/ml): 1.01
- ability of recombinant RTK ligand to confer resistance (G-361, PD184352 - 1 uM, ligand 25 ng/ml): 1.05
- ability of recombinant RTK ligand to confer resistance (G-361, PD184352 - 1 uM, ligand 100 ng/ml): 0.88
- ability of recombinant RTK ligand to confer resistance (G-361, PLX4720 - 2 uM, ligand 0.4 ng/ml): 0.95
- ability of recombinant RTK ligand to confer resistance (G-361, PLX4720 - 2 uM, ligand 1.6 ng/ml): 0.98
- ability of recombinant RTK ligand to confer resistance (G-361, PLX4720 - 2 uM, ligand 6.25 ng/ml): 1.00
- ability of recombinant RTK ligand to confer resistance (G-361, PLX4720 - 2 uM, ligand 25 ng/ml): 0.98
- ability of recombinant RTK ligand to confer resistance (G-361, PLX4720 - 2 uM, ligand 100 ng/ml): 0.84
- ability of recombinant RTK ligand to confer resistance (SK-MEL-5, PD184352 - 1 uM, ligand 0.4 ng/ml): 1.02
- ability of recombinant RTK ligand to confer resistance (SK-MEL-5, PD184352 - 1 uM, ligand 1.6 ng/ml): 1.08
- ability of recombinant RTK ligand to confer resistance (SK-MEL-5, PD184352 - 1 uM, ligand 6.25 ng/ml): 1.00
- ability of recombinant RTK ligand to confer resistance (SK-MEL-5, PD184352 - 1 uM, ligand 25 ng/ml): 0.94
- ability of recombinant RTK ligand to confer resistance (SK-MEL-5, PD184352 - 1 uM, ligand 100 ng/ml): 1.04
- ability of recombinant RTK ligand to confer resistance (SK-MEL-5, PLX4720 - 2 uM, ligand 0.4 ng/ml): 0.99
- ability of recombinant RTK ligand to confer resistance (SK-MEL-5, PLX4720 - 2 uM, ligand 1.6 ng/ml): 1.02
- ability of recombinant RTK ligand to confer resistance (SK-MEL-5, PLX4720 - 2 uM, ligand 6.25 ng/ml): 0.93
- ability of recombinant RTK ligand to confer resistance (SK-MEL-5, PLX4720 - 2 uM, ligand 25 ng/ml): 0.98
- ability of recombinant RTK ligand to confer resistance (SK-MEL-5, PLX4720 - 2 uM, ligand 100 ng/ml): 1.09
- ability of recombinant RTK ligand to confer resistance (SK-MEL-28, PD184352 - 1 uM, ligand 0.4 ng/ml): 1.02
- ability of recombinant RTK ligand to confer resistance (SK-MEL-28, PD184352 - 1 uM, ligand 1.6 ng/ml): 0.97
- ability of recombinant RTK ligand to confer resistance (SK-MEL-28, PD184352 - 1 uM, ligand 6.25 ng/ml): 0.99
- ability of recombinant RTK ligand to confer resistance (SK-MEL-28, PD184352 - 1 uM, ligand 25 ng/ml): 1.15
- ability of recombinant RTK ligand to confer resistance (SK-MEL-28, PD184352 - 1 uM, ligand 100 ng/ml): 0.96
- ability of recombinant RTK ligand to confer resistance (SK-MEL-28, PLX4720 - 2 uM, ligand 0.4 ng/ml): 0.95
- ability of recombinant RTK ligand to confer resistance (SK-MEL-28, PLX4720 - 2 uM, ligand 1.6 ng/ml): 1.05
- ability of recombinant RTK ligand to confer resistance (SK-MEL-28, PLX4720 - 2 uM, ligand 6.25 ng/ml): 0.89
- ability of recombinant RTK ligand to confer resistance (SK-MEL-28, PLX4720 - 2 uM, ligand 25 ng/ml): 1.14
- ability of recombinant RTK ligand to confer resistance (SK-MEL-28, PLX4720 - 2 uM, ligand 100 ng/ml): 0.94
